Assay [1] relates to Streptococcus sp. 'group A'. As to the kind of experiment: growth inhibition of control SK(-) GAS strain, dose response, counter-screen for streptokinase expression inhibitor project, luminescence, kanamycin, BacTiterGlo, confirmation (AID 1900). It is filed as functional, organism-based.
The target in another assay is T1, Streptokinase A (Streptococcus pyogenes serotype M1, UniProt P10520).
T1 sequence (P10520 whole entry): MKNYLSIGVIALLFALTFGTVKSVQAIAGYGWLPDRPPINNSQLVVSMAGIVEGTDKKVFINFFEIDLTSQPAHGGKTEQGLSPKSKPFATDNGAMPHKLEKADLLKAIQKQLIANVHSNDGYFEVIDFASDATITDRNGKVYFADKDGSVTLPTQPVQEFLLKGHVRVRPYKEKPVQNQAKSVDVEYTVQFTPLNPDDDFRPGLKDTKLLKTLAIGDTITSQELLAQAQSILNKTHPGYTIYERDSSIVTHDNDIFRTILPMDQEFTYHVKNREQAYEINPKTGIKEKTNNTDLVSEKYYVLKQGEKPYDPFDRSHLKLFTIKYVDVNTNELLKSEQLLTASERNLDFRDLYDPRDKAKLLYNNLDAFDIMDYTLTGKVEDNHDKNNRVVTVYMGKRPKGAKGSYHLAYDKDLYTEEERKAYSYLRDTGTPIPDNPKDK
As to the kind of experiment: S. pyogenes streptokinase expression inhibitors, potency, dose response, plasminogen activation absorbance, OD405 (AID 1914).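 Further: secreted streptokinase activity via plasminogen activation per viability signal from cell pellet.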 It is filed as functional, Streptococcus pyogenes M1 GAS.

A short description of assay [2]: inhibitors of intracellular T. cruzi replication, confirmation, NIH3T3 host cells, beta-gal luminescence (AID 2044).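 Further: intracellular parasites grown in NIH/3T3 mouse fibroblasts as host cells; luminescent beta-galactosidase reporter signal from transgenic T. cruzi replicating inside host cells; inhibitors lower the luminescence signal.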 The class given is functional, cell-based.
Assay [3] can be described thus: cytotoxicity toward NIH3T3 fibroblasts, dose response, counter-screen, cell-based, ATP luminescence, mouse fibroblasts (AID 2010).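 Further: cells exposed to compound for about 90 hours before reading.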 The class given is functional. Background: Counterscreens check selectivity or assay interference.
The subject of a further assay is Streptococcus. As to the kind of experiment: Group A Streptococcus viability loss, dose response, counter-screen for streptokinase expression inhibitor project, luminescence, BacTiterGlo (AID 1915).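 Further: potency for reduction of bacterial viability or growth.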 It is filed as functional, organism-based.
Assay [4] in a line: Luminescence Cell-Based Dose Retest to Confirm Inhibitors of Cancer Stem Cells. [Related pubchem assays (depositor defined):AID2717, AID2721]. It is filed as functional. As to conditions: Homo sapiens.
For assay [5], the target named is T2, Microphthalmia-associated transcription factor (Homo sapiens, UniProt O75030).
T2 sequence (O75030 whole entry): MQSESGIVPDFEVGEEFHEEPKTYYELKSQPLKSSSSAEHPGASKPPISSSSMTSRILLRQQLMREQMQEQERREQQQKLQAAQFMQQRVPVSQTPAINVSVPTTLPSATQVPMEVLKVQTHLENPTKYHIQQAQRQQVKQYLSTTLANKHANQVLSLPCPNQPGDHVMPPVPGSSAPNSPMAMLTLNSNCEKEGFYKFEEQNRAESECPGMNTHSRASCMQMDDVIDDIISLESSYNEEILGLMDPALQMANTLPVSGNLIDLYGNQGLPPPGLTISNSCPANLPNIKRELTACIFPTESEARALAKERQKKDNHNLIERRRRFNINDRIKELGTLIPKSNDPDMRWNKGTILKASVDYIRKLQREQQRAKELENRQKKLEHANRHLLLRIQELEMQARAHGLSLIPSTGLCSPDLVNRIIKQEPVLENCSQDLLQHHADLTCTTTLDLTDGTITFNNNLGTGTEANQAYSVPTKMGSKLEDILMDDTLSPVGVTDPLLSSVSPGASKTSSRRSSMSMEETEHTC
As to the kind of experiment: TRPM1 promoter luciferase signal decrease, dose response, MITF inhibitor project, cell-based, SK-MEL-5, cherry-picked, set 3 (AID 493073).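 Further: SK-MEL-5 melanoma cells with luciferase driven by the MITF target TRPM1 promoter.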 It is filed as functional.

The subject of assay [6] is A-375. As to the kind of experiment: MITF: Counter assay: A375 proliferation Measured in Cell-Based System Using Plate Reader - 2084-03_Inhibitor_Dose_DryPowder_Activity. [Related pubchem assays (depositor defined):AID488944]. It is filed as functional. Particulars: Homo sapiens.
The subject of assay [7] is A-375. In words: A375 melanoma cell viability reduction, dose response, counter-screen for MITF modulator project, cherry-pick samples, set 2 (AID 540335). The class given is functional, cell-based. As to conditions: Homo sapiens.
Assay [8] deals with Peroxisome proliferator-activated receptor gamma/Nuclear receptor corepressor 2 (Homo sapiens, UniProt P37231+Q9Y618). In words: Counterscreen for NR2E3 inverse agonists: TR-FRET-based biochemical high throughput dose response assay to identify inverse agonists of the interaction between peroxisome proliferator-activated receptor gamma (PPARg) and nuclear receptor co-repressor 2 (NCOR2). The class given is functional.
Peroxisome proliferator-activated receptor gamma/Nuclear receptor corepressor 2, sequence (P37231 whole entry): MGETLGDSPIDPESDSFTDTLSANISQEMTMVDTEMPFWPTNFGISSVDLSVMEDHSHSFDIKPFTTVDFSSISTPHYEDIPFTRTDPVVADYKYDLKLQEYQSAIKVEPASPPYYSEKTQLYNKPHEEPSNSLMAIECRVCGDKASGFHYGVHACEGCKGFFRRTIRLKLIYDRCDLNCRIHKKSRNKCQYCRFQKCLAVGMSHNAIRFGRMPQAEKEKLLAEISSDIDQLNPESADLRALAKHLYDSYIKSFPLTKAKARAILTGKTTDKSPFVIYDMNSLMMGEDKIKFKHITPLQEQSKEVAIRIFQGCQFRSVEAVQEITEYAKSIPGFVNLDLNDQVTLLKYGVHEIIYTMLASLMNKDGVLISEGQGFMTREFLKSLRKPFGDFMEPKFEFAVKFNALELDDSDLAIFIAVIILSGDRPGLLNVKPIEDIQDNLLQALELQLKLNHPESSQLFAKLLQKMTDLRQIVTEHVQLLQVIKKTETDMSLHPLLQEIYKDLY
Peroxisome proliferator-activated receptor gamma/Nuclear receptor corepressor 2, sequence (Q9Y618 whole entry): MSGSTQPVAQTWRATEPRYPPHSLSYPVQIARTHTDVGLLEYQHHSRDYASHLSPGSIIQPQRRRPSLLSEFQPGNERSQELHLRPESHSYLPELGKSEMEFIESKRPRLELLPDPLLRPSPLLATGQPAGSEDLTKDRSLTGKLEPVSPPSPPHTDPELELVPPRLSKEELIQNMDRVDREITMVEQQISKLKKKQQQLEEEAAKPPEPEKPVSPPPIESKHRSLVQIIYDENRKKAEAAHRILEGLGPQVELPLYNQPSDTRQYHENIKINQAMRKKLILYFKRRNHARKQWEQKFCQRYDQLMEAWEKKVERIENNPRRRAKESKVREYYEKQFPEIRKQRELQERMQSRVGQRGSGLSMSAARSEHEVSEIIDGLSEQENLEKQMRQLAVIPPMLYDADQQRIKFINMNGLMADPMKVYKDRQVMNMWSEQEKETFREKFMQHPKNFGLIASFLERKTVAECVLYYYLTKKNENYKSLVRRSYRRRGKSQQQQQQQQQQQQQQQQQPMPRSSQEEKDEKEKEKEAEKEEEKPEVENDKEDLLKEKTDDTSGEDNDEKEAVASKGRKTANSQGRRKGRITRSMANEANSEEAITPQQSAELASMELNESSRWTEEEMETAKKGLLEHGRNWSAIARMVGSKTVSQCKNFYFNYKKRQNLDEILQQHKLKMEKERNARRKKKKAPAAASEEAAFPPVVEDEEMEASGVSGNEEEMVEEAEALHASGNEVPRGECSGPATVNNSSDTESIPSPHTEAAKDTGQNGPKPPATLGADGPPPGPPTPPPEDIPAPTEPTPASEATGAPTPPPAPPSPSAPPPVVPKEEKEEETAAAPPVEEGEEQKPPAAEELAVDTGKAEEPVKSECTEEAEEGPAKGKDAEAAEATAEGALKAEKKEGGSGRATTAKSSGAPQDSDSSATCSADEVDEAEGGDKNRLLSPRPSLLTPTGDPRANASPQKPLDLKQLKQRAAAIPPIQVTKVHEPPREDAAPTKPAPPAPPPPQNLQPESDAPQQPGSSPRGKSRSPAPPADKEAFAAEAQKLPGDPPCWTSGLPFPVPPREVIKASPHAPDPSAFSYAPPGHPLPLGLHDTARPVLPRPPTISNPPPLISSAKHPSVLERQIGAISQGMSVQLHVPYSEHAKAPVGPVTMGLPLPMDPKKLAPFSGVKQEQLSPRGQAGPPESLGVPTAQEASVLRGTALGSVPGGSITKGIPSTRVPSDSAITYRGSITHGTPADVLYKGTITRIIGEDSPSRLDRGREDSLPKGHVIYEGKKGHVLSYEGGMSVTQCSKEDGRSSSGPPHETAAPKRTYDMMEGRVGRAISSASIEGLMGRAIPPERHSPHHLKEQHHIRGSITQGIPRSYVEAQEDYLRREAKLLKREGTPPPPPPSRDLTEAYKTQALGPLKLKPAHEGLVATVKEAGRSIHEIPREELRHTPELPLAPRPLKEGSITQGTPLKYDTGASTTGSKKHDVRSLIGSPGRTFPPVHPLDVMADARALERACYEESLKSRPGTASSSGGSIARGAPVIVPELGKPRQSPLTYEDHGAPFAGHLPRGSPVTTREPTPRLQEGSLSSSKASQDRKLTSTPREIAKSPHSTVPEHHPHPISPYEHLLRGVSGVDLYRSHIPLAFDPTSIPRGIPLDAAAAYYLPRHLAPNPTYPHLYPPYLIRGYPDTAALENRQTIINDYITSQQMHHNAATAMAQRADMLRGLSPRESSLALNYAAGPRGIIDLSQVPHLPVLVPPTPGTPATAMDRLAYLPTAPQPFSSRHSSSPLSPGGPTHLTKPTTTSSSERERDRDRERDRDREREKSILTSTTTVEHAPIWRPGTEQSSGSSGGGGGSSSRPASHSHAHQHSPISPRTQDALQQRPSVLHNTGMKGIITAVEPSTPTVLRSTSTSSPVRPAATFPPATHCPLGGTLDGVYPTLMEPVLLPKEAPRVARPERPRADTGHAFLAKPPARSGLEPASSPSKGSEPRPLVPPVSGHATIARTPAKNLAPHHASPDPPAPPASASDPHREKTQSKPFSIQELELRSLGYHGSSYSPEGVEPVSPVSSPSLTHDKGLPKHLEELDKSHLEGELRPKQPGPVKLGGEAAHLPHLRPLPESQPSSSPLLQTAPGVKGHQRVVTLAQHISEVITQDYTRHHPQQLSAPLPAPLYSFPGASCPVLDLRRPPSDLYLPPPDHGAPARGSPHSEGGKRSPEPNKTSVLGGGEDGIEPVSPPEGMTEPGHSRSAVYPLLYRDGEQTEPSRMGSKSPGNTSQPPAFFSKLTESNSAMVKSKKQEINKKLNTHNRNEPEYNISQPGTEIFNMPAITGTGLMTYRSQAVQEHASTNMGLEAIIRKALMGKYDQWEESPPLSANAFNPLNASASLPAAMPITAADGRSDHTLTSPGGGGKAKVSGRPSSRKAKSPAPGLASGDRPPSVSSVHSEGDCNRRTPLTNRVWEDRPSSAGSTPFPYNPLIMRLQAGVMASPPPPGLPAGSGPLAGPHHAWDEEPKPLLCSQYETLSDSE

Assay [9] addresses Photoreceptor-specific nuclear receptor (Homo sapiens, UniProt Q9Y5X4). As to the kind of experiment: NR2E3 inverse agonists, dose response, biochemical, TR-FRET (AID 463256). It is filed as functional. In general terms: In TR-FRET formats the signal depends on donor and acceptor labels being close together.
For assay [10], the target named is Beta-adrenergic receptor kinase 1 (Homo sapiens, UniProt P25098). As to the kind of experiment: GRK2 inhibitors displacing RNA aptamer, dose response, biochemical, flow cytometry beads, FAM-aptamer, powder set 1 (AID 588720). (In flow cytometry, cells or beads pass a laser one at a time.)
Beta-adrenergic receptor kinase 1, sequence (P25098 whole entry): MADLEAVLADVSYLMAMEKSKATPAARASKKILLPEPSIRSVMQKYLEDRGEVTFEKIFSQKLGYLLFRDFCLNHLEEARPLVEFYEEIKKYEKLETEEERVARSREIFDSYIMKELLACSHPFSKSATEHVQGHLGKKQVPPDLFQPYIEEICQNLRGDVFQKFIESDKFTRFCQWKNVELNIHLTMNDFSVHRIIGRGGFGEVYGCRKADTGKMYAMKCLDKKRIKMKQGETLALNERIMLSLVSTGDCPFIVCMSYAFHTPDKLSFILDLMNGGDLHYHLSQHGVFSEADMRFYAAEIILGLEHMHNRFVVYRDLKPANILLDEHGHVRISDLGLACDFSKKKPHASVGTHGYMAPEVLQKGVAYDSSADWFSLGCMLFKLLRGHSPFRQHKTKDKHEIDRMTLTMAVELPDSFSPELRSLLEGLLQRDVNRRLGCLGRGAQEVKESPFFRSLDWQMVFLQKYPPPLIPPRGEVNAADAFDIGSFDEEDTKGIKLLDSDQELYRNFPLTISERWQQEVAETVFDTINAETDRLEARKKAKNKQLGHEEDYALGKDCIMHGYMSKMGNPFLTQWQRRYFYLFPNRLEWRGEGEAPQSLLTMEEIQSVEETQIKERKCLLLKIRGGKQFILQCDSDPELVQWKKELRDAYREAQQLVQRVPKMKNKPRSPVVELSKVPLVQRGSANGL
The target of assay [11] is T3, Small ubiquitin-related modifier 1 (Homo sapiens, UniProt P63165). As to the kind of experiment: inhibitors of SUMO1 peptide binding, dose response, biochemical, fluorescence polarization, uHTS hits (AID 624382). It is filed as functional. As to conditions: read-out: IC50_Mean.
T3 sequence (P63165 whole entry): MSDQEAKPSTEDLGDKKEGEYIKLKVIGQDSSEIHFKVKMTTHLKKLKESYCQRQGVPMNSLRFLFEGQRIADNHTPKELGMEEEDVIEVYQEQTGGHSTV
In assay [12] the target is T3, Small ubiquitin-related modifier 1. In words: inhibitors of SUMO1 partner interactions, dose response, biochemical, FRET (AID 624383). The class given is functional. As to conditions: read-out: IC50_Mean.
Another assay deals with T4, Hexokinase-1 (Homo sapiens, UniProt P19367).
T4 sequence (P19367 whole entry): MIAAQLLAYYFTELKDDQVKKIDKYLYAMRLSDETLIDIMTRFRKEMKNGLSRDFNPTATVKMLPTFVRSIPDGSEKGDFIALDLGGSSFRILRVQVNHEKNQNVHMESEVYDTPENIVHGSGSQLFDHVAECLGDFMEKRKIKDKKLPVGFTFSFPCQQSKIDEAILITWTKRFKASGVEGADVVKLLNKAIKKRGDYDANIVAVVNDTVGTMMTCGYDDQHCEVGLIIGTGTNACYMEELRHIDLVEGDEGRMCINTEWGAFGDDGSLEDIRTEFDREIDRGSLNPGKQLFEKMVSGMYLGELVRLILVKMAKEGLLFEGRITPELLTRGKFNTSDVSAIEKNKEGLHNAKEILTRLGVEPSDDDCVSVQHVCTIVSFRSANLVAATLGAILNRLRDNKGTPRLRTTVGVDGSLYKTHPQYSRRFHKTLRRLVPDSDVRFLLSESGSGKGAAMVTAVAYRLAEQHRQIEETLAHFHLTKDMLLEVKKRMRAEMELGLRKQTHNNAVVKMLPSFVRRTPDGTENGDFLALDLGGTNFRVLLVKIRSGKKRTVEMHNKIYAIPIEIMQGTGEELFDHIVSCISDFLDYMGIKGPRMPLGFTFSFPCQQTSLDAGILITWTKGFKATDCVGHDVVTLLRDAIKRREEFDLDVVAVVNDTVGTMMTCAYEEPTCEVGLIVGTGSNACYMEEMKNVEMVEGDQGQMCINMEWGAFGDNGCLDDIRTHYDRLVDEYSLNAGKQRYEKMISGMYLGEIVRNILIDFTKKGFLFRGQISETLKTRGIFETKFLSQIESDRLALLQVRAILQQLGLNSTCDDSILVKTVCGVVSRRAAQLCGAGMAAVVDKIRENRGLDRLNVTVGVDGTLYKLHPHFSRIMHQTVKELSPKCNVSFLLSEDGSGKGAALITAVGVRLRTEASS
As to the kind of experiment: HK1 enzyme inhibition by HKDC1 hits, SAR follow-up, selectivity assay for HKDC1 inhibitor project, biochemical, set 2, resazurin fluorescence coupled readout (AID 588356). It is filed as functional.

Another assay has as its target T5, Hexokinase HKDC1 (Homo sapiens, UniProt Q2TB90).
T5 sequence (Q2TB90 whole entry): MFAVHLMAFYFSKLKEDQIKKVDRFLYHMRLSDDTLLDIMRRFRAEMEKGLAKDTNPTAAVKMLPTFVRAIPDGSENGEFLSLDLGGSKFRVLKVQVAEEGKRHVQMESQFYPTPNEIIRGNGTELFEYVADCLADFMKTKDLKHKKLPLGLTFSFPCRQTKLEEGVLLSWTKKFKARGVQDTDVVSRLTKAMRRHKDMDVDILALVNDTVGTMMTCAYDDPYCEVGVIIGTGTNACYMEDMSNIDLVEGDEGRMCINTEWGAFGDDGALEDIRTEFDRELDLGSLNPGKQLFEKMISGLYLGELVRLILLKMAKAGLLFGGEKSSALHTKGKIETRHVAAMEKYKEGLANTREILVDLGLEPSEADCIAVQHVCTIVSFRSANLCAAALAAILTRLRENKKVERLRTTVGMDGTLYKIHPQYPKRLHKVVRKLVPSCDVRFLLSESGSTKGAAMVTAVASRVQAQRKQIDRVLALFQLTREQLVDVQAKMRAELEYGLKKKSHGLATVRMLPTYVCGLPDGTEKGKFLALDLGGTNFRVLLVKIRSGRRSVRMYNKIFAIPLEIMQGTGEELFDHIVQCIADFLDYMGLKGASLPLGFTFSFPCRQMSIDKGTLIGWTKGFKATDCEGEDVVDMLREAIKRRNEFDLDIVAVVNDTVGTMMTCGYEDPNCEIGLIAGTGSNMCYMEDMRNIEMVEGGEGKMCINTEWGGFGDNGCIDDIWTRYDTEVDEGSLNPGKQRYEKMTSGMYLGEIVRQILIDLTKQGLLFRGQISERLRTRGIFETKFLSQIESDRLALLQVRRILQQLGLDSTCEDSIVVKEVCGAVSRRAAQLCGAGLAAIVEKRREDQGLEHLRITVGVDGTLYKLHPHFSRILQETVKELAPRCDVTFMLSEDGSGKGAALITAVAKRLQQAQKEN
In words: HKDC1 hexokinase inhibitors, SAR follow-up, biochemical, set 2 (AID 588355). It is filed as functional.

The subject of assay [13] is Jurkat. In words: SAR Analysis of small molecule inhibitors of […] specific antigen receptor-induced NF-kB activation in a Jurkat cell line using a luminescence assay - Set 3. [Related pubchem assays (depositor defined):AID435022, AID435025, AID465]. The class given is functional, cell-based. As to conditions: Homo sapiens.
Assay [14] deals with HEK293. As to the kind of experiment: SAR Analysis of small molecule inhibitors of B-cell specific antigen receptor-induced NF-kB activation in a HEK-293T cell line using a luminescence assay - Set 2. [Related pubchem assays (depositor defined):AID435022, AID435025, AID489021]. It is filed as functional, cell-based. Particulars: Homo sapiens.
Assay [15] deals with HEK293. In words: cytotoxicity in HEK293T NF-kB-Luc cells, SAR follow-up, cytotoxicity control for NF-kB activator project, cell-based, resazurin fluorescence (AID 493251). It is filed as functional. Particulars: Homo sapiens.
Assay [16] concerns Jurkat. As to the kind of experiment: SAR Analysis of small molecule inhibitors of T-cell specific antigen receptor-induced NF-kB activation in a Jurkat cell line using a luminescence assay - Set 2. [Related pubchem assays (depositor defined):AID435003, AID435012, AID465]. It is filed as functional, cell-based. Particulars: Homo sapiens.
Assay [17] relates to HEK293. In words: SAR Analysis of small molecule inhibitors of T-cell specific antigen receptor-induced NF-kB activation in a HEK-293T cell line using a luminescence assay - Set 2. [Related pubchem assays (depositor defined):AID435003, AID435012, AID489026]. As to conditions: Homo sapiens. It is filed as functional, cell-based.
The target of assay [18] is Dual specificity protein phosphatase 3 (Homo sapiens, UniProt P51452). In words: SAR VHR1 Fluorescent Assay for In Vitro dose response studies Set 3. [Related pubchem assays (depositor defined):AID1654, AID1661, AID1878]. The class given is functional.
Dual specificity protein phosphatase 3, sequence (P51452 whole entry): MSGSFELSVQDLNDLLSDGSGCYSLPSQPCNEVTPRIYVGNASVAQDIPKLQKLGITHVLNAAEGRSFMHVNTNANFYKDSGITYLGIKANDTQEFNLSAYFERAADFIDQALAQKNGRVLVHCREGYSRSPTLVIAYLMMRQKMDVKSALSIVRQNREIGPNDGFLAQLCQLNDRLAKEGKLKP

The source made the active and inactive calls.

As usually defined, the EC50 is the concentration at which the effect is half-maximal. As a reminder, the AC50 is the concentration at which the activity in the assay is half-maximal.

Photoreceptor-specific nuclear receptor, sequence (Q9Y5X4 whole entry): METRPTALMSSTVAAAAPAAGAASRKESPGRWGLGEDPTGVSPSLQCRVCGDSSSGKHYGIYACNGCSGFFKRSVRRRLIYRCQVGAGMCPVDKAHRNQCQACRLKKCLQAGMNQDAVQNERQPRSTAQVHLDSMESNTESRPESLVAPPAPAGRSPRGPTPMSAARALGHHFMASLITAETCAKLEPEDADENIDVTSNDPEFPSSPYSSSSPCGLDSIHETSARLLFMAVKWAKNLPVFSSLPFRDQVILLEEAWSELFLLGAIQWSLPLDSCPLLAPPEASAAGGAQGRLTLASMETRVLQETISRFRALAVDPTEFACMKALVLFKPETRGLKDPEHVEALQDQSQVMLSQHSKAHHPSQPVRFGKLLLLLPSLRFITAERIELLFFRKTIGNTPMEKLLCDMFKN

On to `O=C(Nc1cccc(Cl)c1)Nc1cc(S(=O)(=O)N2CCCCC2)ccc1Cl`, for which the EC50 is 11.8 µM (active) in [1]; 4.59 µM (active) on Streptokinase A; 1.91 µM (active) in assay [2]; > 60 µM (not active) in assay [3]; 26.6 µM (active) with Streptococcus. For the same molecule, the concentration at half-maximal activity (AC50) in [4] is 2.59 µM (active); in assay [5], 12 µM (active); in the assay on A-375 [6], > 11 µM (active); in the assay with A-375 [7], > 11 µM (active).
For the molecule `CCOc1ccc(NC(=O)CCS(=O)(=O)c2ccc(Br)cc2)cc1`, the IC50 in assay [8] is 13.6 µM (not active); in assay [9], 8.87 µM (active); in assay [11], > 66.6 µM (inactive); in [12], 12.8 µM (active). Further, the EC50 in assay [10] is 0.277 µM (inactive).
In the case of `O=c1c2cc(Cl)ccc2nc(/C=C/c2cccnc2)n1Cc1ccccc1`, the IC50 on Hexokinase-1 and at Hexokinase HKDC1 was > 80 µM (inactive) each time.
With `CNC(=O)CCc1nc(-c2ccc(OC)cc2)no1`, the IC50 in the assay with Jurkat [13], in the assay on HEK293 [14] and with HEK293 [15] was > 80 µM (inactive) in each case.
For the molecule `CC(C)c1ccc(C(NC(=O)C2CCCCC2)c2cc([N+](=O)[O-])c3cccnc3c2O)cc1` (stereo not drawn), the IC50 in the assay on HEK293 [15] was 3.96 µM (active); with Jurkat [16], 76.4 µM (inactive); with HEK293 [17], 11.6 µM (active).
As to `COc1ccc(C(=O)Nc2nc3c(OC)ccc(C)c3s2)cc1`, the IC50 in [18] is 48.7 µM (active).

The record behind these values is ChEMBL document CHEMBL1201862, “PubChem BioAssay data set” (2004).
